Experimental data taken from patent EP4800015A1, “AZABICYCLO DERIVATIVE AND PREPARATION METHOD THEREFOR, AND USE” (Zhejiang Hisun Pharmaceutical Co., Ltd., priority 2023, dated 2025).

Columns and labels:
Format in all cases: in vitro ADME
[1] = Metabolic stability in human liver microsomes; details: human liver microsomes 0.5 mg mL^-1, NADPH 1 mM, 0-60 min; read-out: Liver microsomal stability t1/2 (min) Human
Procedure: (§1) The purpose of this study was to investigate the metabolic stability of the compounds of the present disclosure in human and dog liver microsomes.
(§2) The compounds were co-incubated with human (or dog) liver microsomes, and the reaction was initiated by adding coenzyme NADPH (1 mM). At 0, 5, 15, 30, and 60 minutes, 60 µL of incubation solution was removed, and 180 µL of acetonitrile containing internal standard (clopidogrel) was added to quench the reaction, the mixture was shaken for 10 seconds, centrifuged at 10000 rpm for 10 minutes, and the supernatant was taken for analysis by LC-MS/MS. The in vitro intrinsic clearance was calculated based on the elimination half-life of the test compound in the incubation system. Midazolam was used as an internal reference compound, with two parallel incubations for each. Incubation conditions are summarized in Table 6 below: Table 6 Incubation conditions for the example compounds of the present disclosure
(§3) The ratio of the peak area of analyte to internal standard (Aanalyte/AIS) was obtained from the instrument, and the remaining percentage (%Control) was calculated from the ratio of Aanalyte/AIS in non-zero time point samples to zero time samples. Ln (%Control) was plotted against incubation time and linearly fitted. The test compound clearance constant (k, min^-1) and clearance half-life (T1/2, min) were calculated using the following equations. k = −slope [formula] T1/2 = 0.693/k. [formula]

[2] = Caco-2 bidirectional permeability and efflux ratio; details: human, Caco-2, 10 µM, 120 minutes
Procedure: (§4) The bidirectional permeability and efflux ratio of the example compounds and control compound were determined in a Caco-2 monolayer cell model.
(§5) Caco-2 cells (cultured at Shanghai Medicilon Inc.) were recovered in the experiment. After the cells were in good condition, they were digested, and the cell density was adjusted (1 × 10^5 cells/cm^2). Caco-2 cells were seeded into Transwell chambers and placed in 24-well plates for cultivation. After continuous cultivation for about 21 days, TEER values were measured one day before the experiment to ensure formation of a confluent cell monolayer for transport experiments (TEER > 200 Ω·cm^2). Test compounds were diluted from 10 mM stock solutions to 10 µM concentration using transport buffer (HBSS containing BSA) (metoprolol and atenolol were set as positive compounds). For efflux determination, 0.6 mL of compound dilution solution was added to the outer well (side B), and 0.4 mL of blank transport buffer was added to the Transwell chamber. For absorption determination, 0.4 mL of transport buffer containing compound was added to the Transwell chamber, and 0.6 mL of blank transport buffer was added to the outer side. After setup, the 24-well plates were cultivated at 37 °C and 5% CO2 with 95% relative humidity for 120 minutes, and permeability of test compounds from A to B direction or B to A direction was measured, respectively, with two duplicate wells set for each direction. Liquid in Transwell chambers and 24-well plates was collected separately, 60 µL each, and 180 µL of acetonitrile (containing internal standard) was added, vortexed for 1 min, then centrifuged at 4 °C, 10000 rpm for 10 min. The supernatant was taken, filtered through a 0.22 µm membrane, and placed in vials for testing. The content of the compounds in each Transwell chamber and 24-well plate was determined by liquid chromatography-tandem mass spectrometry (LC-MS/MS). Table 4 Permeability data of compounds of the present disclosure

[3] = test system: Caco-2 monolayer cell model; assay: Caco-2 bidirectional permeability and efflux ratio; details: Caco-2, conclusion
Procedure: as §4, §5

[4] = Metabolic stability in dog liver microsomes; details: dog liver microsomes 0.5 mg mL^-1, NADPH 1 mM, 0-60 min; read-out: Liver microsomal stability t1/2 (min) Dog
Procedure: as §1, §2, §3

Work on `CCc1c(N2CCN(C(=O)c3ncnc(C)c3O)CC2)c(=O)n2nc(-c3cc4ccccc4s3)nc2n1CC(=O)Nc1ccc(C(F)(F)F)cc1Cl` [Example 80, 2-(2-(benzo[b]thiophen-2-yl)-5-ethyl-6-(4-(5-hydroxy-6-methylpyrimidine-4-carbonyl)piperazin-1-yl)-7-oxo-[1,2,4]triazolo[1,5-a]pyrimidin-4(7H)-yl)-N-(2-chloro-4-(trifluoromethyl)phenyl)acet amide] yielded a half-life [1] of 1300 min, an efflux ratio at 120 min, 10 µM ([2]; read-out: Efflux ratio Papp(B-A)/ Papp(A-B)) of 0.62 and a Papp A→B at 120 min, 10 µM ([2]; A to B) of 3.67 ×10⁻⁶ cm/s. The Papp B→A at 120 min, 10 µM ([2]; B to A) was 2.29 ×10⁻⁶ cm/s, the “efflux (in words)” value [3] was “no significant efflux” and the “permeability (in words)” value [3] was “moderate permeability”. For the same compound, the half-life [4] was 637 min.
